In US12589143B2, “Human anti-PD-L1 peptide vaccines and methods of their use” (priority 2019, dated 2026):
Where “and” joins values, the source holds several entries; their conditions need not be identical. Equal entries are not always repeated. Where no end group is shown, it is not given here.

Experiments:
[1] = target: T1, PD-1/PD-L1 interaction (Homo sapiens, UniProt Q9NZQ7); assay: PD-1/PD-L1 blockade bioassay (Promega); type: cell-based; conditions: antibodies from immunized rabbits, compared to Nivolumab and Atezolizumab
T1 construct: host or cells: PD-L1 aAPC/CHO-K1 cells and PD-1 effector cells
T1 sequence (Q9NZQ7 19-290): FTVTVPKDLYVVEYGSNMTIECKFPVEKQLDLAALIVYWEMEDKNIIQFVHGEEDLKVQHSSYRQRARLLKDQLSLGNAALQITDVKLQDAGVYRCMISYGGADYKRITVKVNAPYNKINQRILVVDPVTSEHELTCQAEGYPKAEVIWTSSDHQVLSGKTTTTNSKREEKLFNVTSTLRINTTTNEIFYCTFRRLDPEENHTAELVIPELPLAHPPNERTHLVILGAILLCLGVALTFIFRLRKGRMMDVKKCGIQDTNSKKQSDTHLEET
Experimental: The assay was performed following the manufacturer's protocol for the PD-1/PD-L1 blockade bioassay (Promega).
The bioluminescent cell-based PD-1/PD-L1 blockade bioassays provide a good option for rapid screening of therapeutic antibodies or other compounds developed to interfere with PD-1-signaling interaction. PD1/PD-L1 blockade assay was used to test the functionality of 3 anti-PD-L1 antibodies. It was observed that purified polyclonal anti-PD-L1 antibody from the rabbits was able to block PD1/PD-L1 interaction similar to commercial anti-human PD-L1 antibody (FIG. 12). […] In FIG. 12, we show the capacity of each of the PD-L1 vaccines to block the PD-1:PD-L1 interaction as compared to Nivolumab and Atezolizumab. Remarkably only PD-L1 130-147 antibodies were effective
The assay was performed following the manufacturer's protocol for the PD-1/PD-L1 blockade bioassay (Promega). In brief, 4×10^5 aAPC/CHO-K1 or PD-L1 aAPC/CHO-K1 cells were seeded into 96-well plates in RPMI-1640 with 10% FBS. After overnight culturing, the medium was aspirated, and serially diluted purified PD-L1 or PD-1 antibodies, as well as Nivolumab and Atezolizumab antibodies (as reference antibodies) were added. Next, PD-1 effector cells were co-cultured and plate was kept for 5 h at 37° C. in a humidified 5% CO2 incubator. Following mixing with Bio-Glo Reagent, the luminescence was measured with a luminescence plate reader, SpectraMax M3 plate reader (Molecular Devices).

[2] = tested on: MVF-PD-L1 peptide immunogen; assay: Immunogenicity in Balb/c mice, experiment 2 (CT26/HER-2): ELISA of sera vs each MVF-PD-L1 peptide immunogen; type: in vivo
Experimental: Immunogenicity of MVF-PD-L1 B-cell epitopes. New Zealand White rabbits were immunized with 1 mg of each MVF-peptide immunogens dissolved in dd H2O emulsified (1:1) in Montanide ISA 720 vehicle (Seppic) with 333 μg of N-acetylglucosamine-3yl-acetyl-1-alanyl-d-isoglutamine (nor-MDP). Rabbits were boosted with the same doses at 3-week's intervals. Blood was collected via the central auricular artery in rabbits. Blood was collected weekly (1Y+3, 2Y+1, 2Y+2,2Y+3, 3Y+1, 3Y+2 and sera tested for antibody titers by ELISA using the immunogens MVF-PD-L1 peptides. Sera (terminal) from rabbit (3Y+3) immunized with MVF-PD-1 peptide immunogens were tested individually versus the immunogen by ELISA. 200 ng/well peptide were used in duplicates to coat the ELISA plates. Titers are defined as the highest dilution of sera with an absorbance value of 0.2 after subtracting the blank. […]
In order to verify the efficacy of the PD-L1 epitope vaccines in vivo in the CT26/HER-2 carcinoma cell line, Balb/c mice (10 mice/group) were immunized with 100 μg each of MVF-PD-L1 (36-53), MVF-PD-L1 (50-67), MVF-PD-L1 (95-112) and MVF-PD-L1 (130-147) emulsified with nor-MDP and Montanide 720 (1:1 ratio) SCHEME 2A (FIG. 15A). As detailed in SCHEME 2A-D (FIGS. 15A, 15B, 15C, and 15D), mice were immunized 3 times at 3 weeks intervals. […] All PD-L1 epitopes elicited high titers of PD-L1 anti-peptide antibodies by ELISA. […] We also investigated the combination of PD-1(92-110) with PD-L1-95.
For each peptide, vaccine antibodies were raised in New Zealand white rabbits, purchased from Charles River Laboratories (Wilmington, MA, USA). Rabbits were immunized with 1 mg of MVF chimeric peptide emulsified in Montanide ISA 720 (Seppic, Paris, France) and boosted 3 times at three week intervals. For mouse experiments, mice, 6-8 weeks old, were immunized with 0.1 mg of peptide emulsified in ISA720 (1:1 ratio). Mice were boosted with the respective doses at 3-week intervals. Blood was then collected and sera were tested for antibody titers. Sera were collected weekly and peptide vaccine antibodies were purified by affinity chromatography using a protein A/G column and the concentration was measured using Spectrophometer. All experiments were performed in accordance with the U.S. Public Health Service Policy on Humane Care and Use of Laboratory animals and approved by the Ohio State University Institutional Animals Care and Use Committee, detailed in the accepted protocol.
6-8 weeks old BALB/c mice (Charles River, Wilmington, MA) were used as standard animal models. Mouse CT26 colon carcinoma cell line was purchased from American Type Culture Collection Cells and were regularly cultured in RPMI1640 medium containing 10% FBS. CT26/HER2 cells were kindly provided by M. Penichet. Vaccines were dissolved in sterile water and emulsified in Montanide ISA 720 (1:1). Female Balb/c mice (Charles River Laboratories) at the age of 6-8 weeks were immunized three times at 3-week intervals with 100 μg of each peptide vaccine, and 2 weeks after the third immunization, the mice were challenged with CT26 and/or CT26/HER-2 tumor cells, which were implanted subcutaneously (s.c) on the right flank (1×10^5 per mouse). 200 μg of rat α-mouse PD-L1 mAb 10F.9G2 (Bio X Cell, West Lebanon, NH) were administered intraperitoneally (i.p.), twice weekly following tumor inoculation in the control group. Mice were monitored and scored for the formation of palpable tumors on a daily basis and sacrificed if tumors became necrotic or exceeded the predetermined size of 2,000 mm^3. Tumor volumes were measured in cubic millimeters with calipers and calculated with the following formula: A×B^2×0.5, where A is the largest diameter, and B is the widest point perpendicular to length. During immunization, blood was drawn weekly and used in ELISA to monitor antibody titers.

KLLSLIKGVIVHRLEGVEGPSLVTSEHELTCQAEGYPKAE (KLLSLIKGVIVHRLEGVEGPSLVTSEHELTCQAEGYPKAE-NH2) [PD-L1(130)]
blocking of PD-1/PD-L1 interaction [1]: able to inhibit PD-1/PD-L1 | Immunogenicity (titers) 1′ Conc. 1: ([2]; bleed 1Y + 3, (1to100)): 1600 | ELISA plate reading of serum ([2]; bleed 1Y + 3, (1to100), dilution 800, duplicate wells): 0.449 and 0.439 | ELISA plate reading of serum ([2]; bleed 1Y + 3, (1to100), dilution 1,600, duplicate wells): 0.262 and 0.245 | ELISA plate reading of serum ([2]; bleed 1Y + 3, (1to100), dilution 6,400, duplicate wells): 0.072 and 0.050 | ELISA plate reading of serum ([2]; bleed 1Y + 3, (1to100), dilution 12,800, duplicate wells): 0.040 and 0.030 | ELISA plate reading of serum ([2]; bleed 1Y + 3, (1to100), dilution row 100, duplicate wells): 1.023 and 1.039 | ELISA plate reading of serum ([2]; bleed 1Y + 3, (1to100), dilution row 200, duplicate wells): 0.861 and 0.849 | ELISA plate reading of serum ([2]; bleed 1Y + 3, (1to100), dilution row 400, duplicate wells): 0.671 and 0.672 | ELISA plate reading of serum ([2]; bleed 1Y + 3, (1to100), dilution row 3,200, duplicate wells): 0.148 and 0.110 | Immunogenicity (titers) 1′ Conc. 1: ([2]; bleed 2Y + 1, (1to100)): 6400 | ELISA plate reading of serum ([2]; bleed 2Y + 1, (1to100), dilution 800, duplicate wells, bleed 2Y + 1): 1.118 and 1.079 | ELISA plate reading of serum ([2]; bleed 2Y + 1, (1to100), dilution 1,600, duplicate wells, bleed 2Y + 1): 0.819 and 0.774 | ELISA plate reading of serum ([2]; bleed 2Y + 1, (1to100), dilution 6,400, duplicate wells, bleed 2Y + 1): 0.311 and 0.286 | ELISA plate reading of serum ([2]; bleed 2Y + 1, (1to100), dilution 12,800, duplicate wells, bleed 2Y + 1): 0.175 and 0.162 | ELISA plate reading of serum ([2]; bleed 2Y + 1, (1to100), dilution row 100, duplicate wells, bleed 2Y + 1): 1.606 and 1.563 | ELISA plate reading of serum ([2]; bleed 2Y + 1, (1to100), dilution row 200, duplicate wells, bleed 2Y + 1): 1.477 and 1.479 | ELISA plate reading of serum ([2]; bleed 2Y + 1, (1to100), dilution row 400, duplicate wells, bleed 2Y + 1): 1.378 and 1.347 | ELISA plate reading of serum ([2]; bleed 2Y + 1, (1to100), dilution row 3,200, duplicate wells, bleed 2Y + 1): 0.516 and 0.492 | Immunogenicity (titers) 1′ Conc. 1: ([2]; bleed 2Y + 2, (1to1k)): 16000 | ELISA plate reading of serum ([2]; bleed 2Y + 2, (1to1k), dilution 800, duplicate wells): 0.407 and 0.427 | ELISA plate reading of serum ([2]; bleed 2Y + 2, (1to1k), dilution 1,600, duplicate wells): 0.280 and 0.257 | ELISA plate reading of serum ([2]; bleed 2Y + 2, (1to1k), dilution 6,400, duplicate wells): 0.064 and 0.061 | ELISA plate reading of serum ([2]; bleed 2Y + 2, (1to1k), dilution row 100, duplicate wells): 1.476 and 1.437 | ELISA plate reading of serum ([2]; bleed 2Y + 2, (1to1k), dilution row 200, duplicate wells): 1.131 and 1.086 | ELISA plate reading of serum ([2]; bleed 2Y + 2, (1to1k), dilution row 400, duplicate wells): 0.767 and 0.735 | ELISA plate reading of serum ([2]; bleed 2Y + 2, (1to1k), dilution row 3,200, duplicate wells): 0.145 and 0.132 | Immunogenicity (titers) 1′ Conc. 1: ([2]; bleed 2Y + 3, (1to1k)): 64000 | ELISA plate reading of serum ([2]; bleed 2Y + 3, (1to1k), dilution 800, duplicate wells): 1.024 and 0.946 | ELISA plate reading of serum ([2]; bleed 2Y + 3, (1to1k), dilution 1,600, duplicate wells): 0.699 and 0.615 | ELISA plate reading of serum ([2]; bleed 2Y + 3, (1to1k), dilution 6,400, duplicate wells): 0.246 and 0.233 | ELISA plate reading of serum ([2]; bleed 2Y + 3, (1to1k), dilution row 100, duplicate wells): 1.711 and 1.644 | ELISA plate reading of serum ([2]; bleed 2Y + 3, (1to1k), dilution row 200, duplicate wells): 1.518 and 1.488 | ELISA plate reading of serum ([2]; bleed 2Y + 3, (1to1k), dilution row 400, duplicate wells): 1.317 and 1.263 | ELISA plate reading of serum ([2]; bleed 2Y + 3, (1to1k), dilution row 3,200, duplicate wells): 0.435 and 0.430 | Immunogenicity (titers) 1′ Conc. 1: ([2]; bleed 3Y + 1, (1to1k)): 64000 | ELISA plate reading of serum ([2]; bleed 3Y + 1, (1to1k), dilution 800, duplicate wells, bleed 3Y + 1): 1.176 and 1.158 | ELISA plate reading of serum ([2]; bleed 3Y + 1, (1to1k), dilution 1,600, duplicate wells, bleed 3Y + 1): 0.801 and 0.729 | ELISA plate reading of serum ([2]; bleed 3Y + 1, (1to1k), dilution 6,400, duplicate wells, bleed 3Y + 1): 0.219 and 0.206 | ELISA plate reading of serum ([2]; bleed 3Y + 1, (1to1k), dilution row 100, duplicate wells, bleed 3Y + 1): 1.928 and 1.945 | ELISA plate reading of serum ([2]; bleed 3Y + 1, (1to1k), dilution row 200, duplicate wells, bleed 3Y + 1): 1.823 and 1.707 | ELISA plate reading of serum ([2]; bleed 3Y + 1, (1to1k), dilution row 400, duplicate wells, bleed 3Y + 1): 1.516 and 1.458 | ELISA plate reading of serum ([2]; bleed 3Y + 1, (1to1k), dilution row 3,200, duplicate wells, bleed 3Y + 1): 0.438 and 0.427 | Immunogenicity (titers) 1′ Conc. 1: ([2]; bleed 3Y + 2, (1to1k)): 64000 | ELISA plate reading of serum ([2]; bleed 3Y + 2, (1to1k), dilution 800, duplicate wells, bleed 3Y + 2): 1.412 and 1.389 | ELISA plate reading of serum ([2]; bleed 3Y + 2, (1to1k), dilution 1,600, duplicate wells, bleed 3Y + 2): 0.961 and 0.874 | ELISA plate reading of serum ([2]; bleed 3Y + 2, (1to1k), dilution 6,400, duplicate wells, bleed 3Y + 2): 0.262 | ELISA plate reading of serum ([2]; bleed 3Y + 2, (1to1k), dilution row 100, duplicate wells, bleed 3Y + 2): 2.313 and 2.334 | ELISA plate reading of serum ([2]; bleed 3Y + 2, (1to1k), dilution row 200, duplicate wells, bleed 3Y + 2): 2.188 and 2.048 | ELISA plate reading of serum ([2]; bleed 3Y + 2, (1to1k), dilution row 400, duplicate wells, bleed 3Y + 2): 1.819 and 1.749 | ELISA plate reading of serum ([2]; bleed 3Y + 2, (1to1k), dilution row 3,200, duplicate wells, bleed 3Y + 2): 0.526 and 0.512 | Immunogenicity (titers) 1′ Conc. 1: ([2]; bleed 3Y + 3, (1to1k)): 64000 | ELISA plate reading of serum ([2]; bleed 3Y + 3, (1to1k), dilution 800, duplicate wells): 1.445 and 1.468 | ELISA plate reading of serum ([2]; bleed 3Y + 3, (1to1k), dilution 1,600, duplicate wells): 0.909 and 0.999 | ELISA plate reading of serum ([2]; bleed 3Y + 3, (1to1k), dilution 6,400, duplicate wells): 0.257 | ELISA plate reading of serum ([2]; bleed 3Y + 3, (1to1k), dilution row 100, duplicate wells): 2.427 and 2.406 | ELISA plate reading of serum ([2]; bleed 3Y + 3, (1to1k), dilution row 200, duplicate wells): 2.130 and 2.275 | ELISA plate reading of serum ([2]; bleed 3Y + 3, (1to1k), dilution row 400, duplicate wells): 1.819 and 1.892 | ELISA plate reading of serum ([2]; bleed 3Y + 3, (1to1k), dilution row 3,200, duplicate wells): 0.532 and 0.547
